From patent US5698547A, “Cephalosporin antibiotics” (Microcide Pharmaceuticals, Inc., priority 1995, dated 1997)
Structures can show the parent of a compound that is named as a salt. Where two headings read alike, the source gives them in different places.

How the values were obtained:
[1] = test system: Enterococci (E. faecium and E. faecalis); assay: In vitro antibacterial evaluation, Enterococci; format: cell-based; settings: in words
Method: (§1) The compounds of the invention were evaluated against several β-lactamresistant bacteria strains by determining the minimum inhibitory concentration (MIC, μg/ml) of each compound with respect to each strain. The MIC, the lowest concentration of antibiotic which inhibits growth of the test organism, was determined by the agar dilution method.
(§2) To determine the MIC for bacterial isolates, the test compound was incorporated in a series of two-fold dilutions into liquified Mueller-Hinton agar. Upon solidification, a number of different bacterial strains were spot inoculated with a replicating device onto the agar surface. […] The procedures used in these studies have been standardized by the National Committee for Clinical Laboratory Standards (NCCLS), as per the NCCLS publication entitled METHODS FOR DILUTION ANTIMICROBIAL SUSCEPTIBILITY TESTS (1991), which is incorporated herein by reference.
(§3) Aliquots of antimicrobial agents were prepared in phosphate buffered saline (PBS) at pH 7.2. Tween 20 or DMSO was used as a solubilizing vehicle as needed. Standard methods of vortexing, sonicating and gentle heat were used to facilitate solubilizing the test agent. Typically, the concentration of the stock solution was 10× that of the highest drug concentration tested. A 1.28 mg/mL stock solution was used with a subsequent highest working concentration of 128 μg/mL. Serial two-fold dilutions were done through ≤0.25 μg/mL. Each drug level was tested in duplicate. Two-fold drug dilutions were done in sterile 50 mL tubes with a final drug volume of 5 mL. Upon the addition of 45 mL of molten agar, a 10-fold dilution resulted. Two, 25 mL. plates were then poured into 15×150 mm square Petri plates with grids and allowed to harden.
A control plate with a reference drug, either cefotaxime, vancomycin or imipenem, was used as the positive growth control. […]
Disposable sterile 1 μL loops were used to inoculate test plates, with each isolate in a designated grid on the agar plate. […] Endpoints were assessed as the minimum inhibitory concentration (MIC) of antimicrobial agent.

[2] = test system: S. aureus Col (Meth^R) (lac^-); assay: MIC by agar dilution, S. aureus Col (Meth^R) (lac^-); format: cell-based; settings: for MIC: Staphylococcus aureus, agar dilution, S. aureus Col (Meth^R) (lac^-), read-out: MIC
Procedure, shortened: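 Log-phase isolates were spot-inoculated at about 10^4 cfu onto Mueller-Hinton agar carrying duplicate two-fold compound levels, 128 μg/mL to ≤0.25 μg/mL, following NCCLS (1991). Plates were read after 16-20 h at 35°-36° C. The lowest growth-inhibiting concentration gave the MIC (μg/ml).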

[3] = test system: S. aureus 76 (Meth^R) (lac^+); assay: MIC by agar dilution, S. aureus 76 (Meth^R) (lac^+); format: cell-based; settings: Staphylococcus aureus, read-out: MIC
Method: as §1, §2, §3
(§4) A control plate with a reference drug, either cefotaxime, vancomycin or imipenem, was used as the positive growth control. Stock concentrations of reference antibiotics were prepared and frozen at -80° C. Upon preparation, the control plates were sealed and stored in the refrigerator for up to 1 week prior to use; however, imipenem control plates had to be prepared just prior to use. All test plates were used within 24 hours of preparation.
(§5) Satisfactory results were obtained where the inoculum contained about 10^4 colony forming units (cfu) ±0.5 logs. Starting with pure cultures of the test isolates on agar plates, a few isolated colonies were transferred to a tube of nutrient broth and allowed to grow 4-6 hours at 35°-36° C. to reach log-phase growth. Dropwise addition of the broth culture to PBS was done to match a 0.5 McFarland turbidity standard equal to 10^8 cfu/mL. This was further diluted ten-fold in PBS to reach a working inoculum concentration of 10^7 cfu/mL. When 1 μL of the working inoculum was applied to the agar surface a concentration of about 10^4 cfu per spot was obtained.
(§6) Disposable sterile 1 μL loops were used to inoculate test plates, with each isolate in a designated grid on the agar plate. An alternate method of inoculation involved the use of a replica plater, a device with 48 steel pins allowing the simultaneous inoculation of multiple isolates. After the spots had dried, the plates were incubated at 35°-36° C. for 16-20 hours. Endpoints were assessed as the minimum inhibitory concentration (MIC) of antimicrobial agent.

E. faecalis ATCC 29212 = assay: MIC by agar dilution, E. faecalis ATCC 29212; format: cell-based; settings: Enterococcus faecalis, ATCC29212, read-out: MIC
Method: as §1, §2, §3, §4, §5, §6

S. aureus ATCC 29213 = assay: MIC by agar dilution, S. aureus ATCC 29213; format: cell-based; settings: Staphylococcus aureus, ATCC29213
Method: as §1, §2, §3, §4, §5, §6

[4] = test system: methicillin-susceptible S. aureus strain ATCC 13709; assay: murine model for lethal bacteremic peritonitis; format: in vivo, female Swiss-Webster mice; settings: 72 h, subcutaneous; for ED50: Staphylococcus aureus, ATCC13709, sc, two equal doses, S. aureus ATCC 13709 IP challenge, read-out: ED50
Procedure, shortened: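 Female Swiss-Webster mice challenged IP with an LD100 titer of bacteria in 7% hog gastric mucin; groups of 10 treated SC with twofold drug increments (0.01–512 mg/kg) as two equal doses at challenge and 2 h later. Survival followed for 72 h; PD50 (total mg/kg) calculated by probit method.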

E. coli ATCC 25922 = assay: MIC by agar dilution, E. coli ATCC 25922; format: cell-based; settings: Escherichia coli, ATCC25922, read-out: MIC
Method: as §1, §2, §3, §4, §5, §6

P. aeruginosa ATCC 27853 = assay: MIC by agar dilution, P. aeruginosa ATCC 27853; format: cell-based; settings: Pseudomonas aeruginosa, ATCC27853, read-out: MIC
Method: as §1, §2, §3, §4, §5, §6

E. faecium ATCC 35667 = assay: MIC by agar dilution, E. faecium ATCC 35667; format: cell-based; settings: Enterococcus faecium, ATCC35667, read-out: MIC
Method: as §1, §2, §3, §4, §5, §6

[5] = test system: S. aureus Col8A (Meth^S) (lac^-); assay: MIC by agar dilution, S. aureus Col8A (Meth^S) (lac^-); format: cell-based; settings: Staphylococcus aureus; agar dilution; S. aureus Col8A (Meth^S) (lac^-); read-out: MIC
Method: as §1, §2, §3, §4, §5, §6
The novel agents of this invention are notable for their enhanced activity against S. aureus Col and Enterococci (E. faecium and E. faecalis). The S. aureus Col strain is a high-level PBP2a producer, whereas S. aureus Col 8A, its isogenic partner, lacks PBP2a. […] Thus, the compounds of the present invention are effective against PBP2a-producing bacteria.

S. haemolyticus (Meth^R) = assay: MIC by agar dilution, S. haemolyticus (Meth^R); format: cell-based; settings: Staphylococcus haemolyticus, read-out: MIC
Method: as §1, §2, §3, §4, §5, §6

[6] = agar dilution, S. aureus ATCC 29213, read-out: MIC

## O=C(Cc1ccccc1)N[C@@H]1C(=O)N2C(C(=O)O)=C(SCc3ccc(-c4ccccc4)cc3)CS[C@H]12 [Cmpd 12, (7R)-7-[(Phenylacetyl)amino]-3-(4-biphenylmethylthio)-3-cephem-4-carboxylic acid]
[1]
  activity against Enterococci: potent activity
[2]
  MIC: > 32 µg/mL
[2]; in words, PBP2a producer
  activity against S. aureus Col: lacking activity

## N=C(N)SCc1ccc(SC2=C(C(=O)O)N3C(=O)[C@@H](NC(=O)Cc4ccccc4)[C@H]3SC2)c(CSC(=N)N)c1 [Cmpd 138, (7R)-7-[(phenylacetyl)amino]-3-[2,4-(bis) (isothiouroniummethyl)phenylthio]-3-cephem-4-carboxylate, trifluoroacetic acid salt]
[3]
  MIC: 8 µg/mL
E. faecalis ATCC 29212
  MIC: 0.5 µg/mL
S. aureus ATCC 29213; [6]
  MIC: 0.125 µg/mL
[4]
  ED50: 0.075 mg/kg
[4]; dose 0.0195 mg/kg
  Mortality: 9/10
[4]; dose 0.0391 mg/kg
  Mortality: 10/10
[4]; dose 0.0781 mg/kg
  Mortality: 6/10
[4]; dose 0.1562 mg/kg
  Mortality: 0/10
[4]; dose 0.3125 mg/kg
  Mortality: 0/10
E. coli ATCC 25922
  MIC: 32 µg/mL
P. aeruginosa ATCC 27853
  MIC: > 32 µg/mL
E. faecium ATCC 35667
  MIC: 0.5 µg/mL
[5]
  MIC: ≤ 0.06 µg/mL
[2]
  MIC: 2 µg/mL
S. haemolyticus (Meth^R)
  MIC: 8 µg/mL

## N=C(N)SCc1ccc(SC2=C(C(=O)O)N3C(=O)[C@@H](NC(=O)/C(=N\O)c4csc(N)n4)[C@H]3SC2)c(CSC(=N)N)c1 [Cmpd 139, (7R)-7-[(Z)-2-(Aminothiazol-4-yl)-2-(hydroxyimino)acetamido]-3-[2,4-(bis)isothiouroniummethylphenylthio]-3-cephem-4-carboxylate, trifluoroacetic acid salt]
[3]
  MIC: 4 µg/mL
E. faecalis ATCC 29212
  MIC: 0.125 µg/mL
S. aureus ATCC 29213; [6]
  MIC: 0.25 µg/mL
[4]
  ED50: 0.28 mg/kg
[4]; dose 0.1562 mg/kg
  Mortality: 4/10
[4]; dose 0.3125 mg/kg
  Mortality: 8/10
[4]; dose 0.625 mg/kg
  Mortality: 4/10
[4]; dose 1.25 mg/kg
  Mortality: 0/10
[4]; dose 2.5 mg/kg
  Mortality: 1/10
E. coli ATCC 25922
  MIC: 1 µg/mL
P. aeruginosa ATCC 27853
  MIC: > 32 µg/mL
E. faecium ATCC 35667
  MIC: 0.5 µg/mL
[5]
  MIC: 0.25 µg/mL
[2]
  MIC: 4 µg/mL
S. haemolyticus (Meth^R)
  MIC: 4 µg/mL

## CSCC(=O)N[C@@H]1C(=O)N2C(C(=O)O)=C(Sc3ccc(CSC(=N)N)cc3CSC(=N)N)CS[C@H]12 [Cmpd 140, (7R)-7-[(methylthioacetyl)amino]-3-[2,4-(bis)isothiouroniummethylphenylthio]-3-cephem-4-carboxylate, trifluoroacetic acid salt]
[3]
  MIC: 8 µg/mL
E. faecalis ATCC 29212
  MIC: 1 µg/mL
S. aureus ATCC 29213; [6]
  MIC: 0.125 µg/mL
[4]
  ED50: < 0.156 mg/kg
[4]; dose 0.1562 mg/kg
  Mortality: 0/10
[4]; dose 0.3125 mg/kg
  Mortality: 1/10
[4]; dose 0.625 mg/kg
  Mortality: 2/10
[4]; dose 1.25 mg/kg
  Mortality: 0/10
[4]; dose 2.5 mg/kg
  Mortality: 0/10
E. coli ATCC 25922
  MIC: > 32 µg/mL
P. aeruginosa ATCC 27853
  MIC: > 32 µg/mL
E. faecium ATCC 35667
  MIC: 1 µg/mL
[5]
  MIC: ≤ 0.06 µg/mL
[2]
  MIC: 2 µg/mL
S. haemolyticus (Meth^R)
  MIC: 8 µg/mL

## N=C(N)NCCSCC(=O)N[C@@H]1C(=O)N2C(C(=O)O)=C(Sc3ccc(CSC(=N)N)cc3CSC(=N)N)CS[C@H]12 [Cmpd 141, (7R)-7-[((2-guanidinoethylthio)acetyl)amino]-3-[2,4-(bis)isothiouroniummethylphenylthio]-3-cephem-4-carboxylate, trifluoroacetic acid salt]
[3]
  MIC: 8 µg/mL
E. faecalis ATCC 29212
  MIC: 1 µg/mL
S. aureus ATCC 29213; [6]
  MIC: 0.25 µg/mL
[4]
  ED50: < 0.156 mg/kg
[4]; dose 0.1562 mg/kg
  Mortality: 3/10
[4]; dose 0.3125 mg/kg
  Mortality: 3/10
[4]; dose 0.625 mg/kg
  Mortality: 2/10
[4]; dose 1.25 mg/kg
  Mortality: 1/10
[4]; dose 2.5 mg/kg
  Mortality: 1/10
E. coli ATCC 25922
  MIC: 4 µg/mL
P. aeruginosa ATCC 27853
  MIC: > 32 µg/mL
E. faecium ATCC 35667
  MIC: 0.5 µg/mL
[5]
  MIC: 0.25 µg/mL
[2]
  MIC: 2 µg/mL
S. haemolyticus (Meth^R)
  MIC: 8 µg/mL

## N=C(N)SCCSCC(=O)N[C@@H]1C(=O)N2C(C(=O)O)=C(Sc3ccc(CSC(=N)N)cc3CSC(=N)N)CS[C@H]12 [Cmpd 142, (7R)-7-[((2-(isothiouronium)ethylthio)acetyl)amino]-3-[2,4-(bis)isothiouroniummethylphenylthio]-3-cephem-4-carboxylate, trifluoroacetic acid salt]
[3]
  MIC: 8 µg/mL
E. faecalis ATCC 29212
  MIC: 1 µg/mL
S. aureus ATCC 29213; [6]
  MIC: 0.25 µg/mL
[4]
  ED50: < 0.156 mg/kg
[4]; dose 0.1562 mg/kg
  Mortality: 3/10
[4]; dose 0.3125 mg/kg
  Mortality: 1/10
[4]; dose 0.625 mg/kg
  Mortality: 0/10
[4]; dose 1.25 mg/kg
  Mortality: 0/10
[4]; dose 2.5 mg/kg
  Mortality: 0/10
P. aeruginosa ATCC 27853
  MIC: > 32 µg/mL
E. faecium ATCC 35667
  MIC: 0.5 µg/mL
[5]
  MIC: 0.25 µg/mL
[2]
  MIC: 4 µg/mL
S. haemolyticus (Meth^R)
  MIC: 8 µg/mL

## N=C(N)SCCSCC(=O)N[C@@H]1C(=O)N2C(C(=O)O)=C(Sc3ccccc3CSC(=N)N)CS[C@H]12 [Cmpd 143, (7R)-7-[((2-(isothiouronium)ethylthio)acetyl)amino]-3-[2-(isothiouroniummethyl)phenylthio]-3-cephem-4-carboxylate, trifluoroacetic acid salt]
[3]
  MIC: 16 µg/mL
E. faecalis ATCC 29212
  MIC: 0.5 µg/mL
S. aureus ATCC 29213
  MIC: 0.125 µg/mL
[4]
  ED50: 0.34 mg/kg
[4]; dose 0.0391 mg/kg
  Mortality: 9/10
[4]; dose 0.0781 mg/kg
  Mortality: 8/10
[4]; dose 0.1562 mg/kg
  Mortality: 9/10
[4]; dose 0.3125 mg/kg
  Mortality: 6/10
[4]; dose 0.625 mg/kg
  Mortality: 2/10
E. coli ATCC 25922
  MIC: 8 µg/mL
P. aeruginosa ATCC 27853
  MIC: > 32 µg/mL
E. faecium ATCC 35667
  MIC: 0.5 µg/mL
[5]
  MIC: 0.125 µg/mL
[2]
  MIC: 8 µg/mL
S. haemolyticus (Meth^R)
  MIC: 16 µg/mL
